Measured values from paper PMC5085626, “Characterization of a β-Adrenergic-Like Octopamine Receptor in the Oriental Fruit Fly, Bactrocera dorsalis (Hendel)” (International Journal of Molecular Sciences, 2016).
Counter-ions that a name gives are not always drawn. Each block holds one molecule with its values, some of them ahead of it.

Tests used:
[1] = target: T1, BdOctβR1 (Bactrocera dorsalis, UniProt A0ABM3J3U4); test: Agonist cAMP response assay (GloSensor luminescence) of BdOctβR1 transiently expressed in HEK-293 cells; type: cell-based; details: for EC50: BdOctβR1 in HEK-293 cells, cAMP luminescence, read-out: median effective concentration (EC50)
Source text: A 10-fold serial dilution of the ligands octopamine, tyramine, dopamine, naphazoline, and phentolamine was applied to the cells. […] The authentic ligand octopamine was selected as the model ligand for normalization of the luminescence. A concentration–response curve was generated for each receptor by logistic fitting in Origin 8.6 (OriginLab, Northampton, MA, USA) as previously reported.

[2] = tested on: empty pcDNA3.1 vector-transfected HEK-293 cells; test: Negative control: cAMP luminescence in empty pcDNA3.1 vector-transfected HEK-293 cells; type: cell-based; details: ligands at 1.00 × 10^−6 M
[3] = tested on: DmOctβR1; design: method as in PMID 15998303; details: DmOctβR1 of D. melanogaster; cited from earlier work
[4] = tested on: AmOctβR1; design: method as in PMID 24266860; details: AmOctβR1 of A. mellifera; cited from earlier work
[5] = target: T1, BdOctβR1
Description: (§1) For the cAMP response assays, we used the non-lytic GloSensor cyclic AMP assay kit (Promega) for monitoring intracellular cAMP in live cells. At the same time, the empty pcDNA3.1 vector was transfected in HEK-293 cells as a negative control. The methods for transient expression of BdOctβR1 in HEK-293 cells and procedures for the assays were followed as previously described [41, 42, 43, 44]. Thirty hours after the transfection, the cells were collected and preincubated with 1% GloSensor substrate in HEK-293 cells (Invitrogen) before the test. Ligands being tested were plated in each well of the 96-well plate. As described previously, the cells were injected into a well, and the changes in luminescence were monitored [45].
(§2) The antagonist assay was examined with serial dilutions of antagonists in the transfected cells on a luminescence detection systems (Berthold Technologies). Basically, the antagonistic activity assay was conducted in 2 sequential treatments. In the 1st treatment, various concentrations of ligands (50 μL in volume) were plated in each well, including a solvent (DMEM, Dulbecco’s modified Eagle’s medium) as control. Following the injection of the cells into the well, a 30-min incubation with the tested ligands was conducted. Subsequently, the 2nd treatment was conducted. The cells were treated with 1.00 × 10^−6 M octopamine, which was the minimum concentration inducing the maximal activity, and the luminescent response was measured. For the assays, the cells treated with DMEM in both the 1st and 2nd treatment were set as background. The cells were treated with DMEM in the 1st treatment, while 1.00 × 10^−6 M octopamine in the 2nd treatment, without adding any antagonist, served as positive control. Relative luminescence of ligand was normalized to the largest positive control response in each plate (1.00 × 10^−6 M octopamine) after background subtractions [43]. The values calculated in the treatment were used to construct the inhibitor concentration–response curves. […]

[6] = tested on: DmOctβR1; design: method as in PMID 15998303; details: DmOctβR1 in Drosophila; cited from earlier work
[7] = target: T1, BdOctβR1; test: cell-based
Description: as §1, §2

T1 sequence (A0ABM3J3U4 entry or part of it): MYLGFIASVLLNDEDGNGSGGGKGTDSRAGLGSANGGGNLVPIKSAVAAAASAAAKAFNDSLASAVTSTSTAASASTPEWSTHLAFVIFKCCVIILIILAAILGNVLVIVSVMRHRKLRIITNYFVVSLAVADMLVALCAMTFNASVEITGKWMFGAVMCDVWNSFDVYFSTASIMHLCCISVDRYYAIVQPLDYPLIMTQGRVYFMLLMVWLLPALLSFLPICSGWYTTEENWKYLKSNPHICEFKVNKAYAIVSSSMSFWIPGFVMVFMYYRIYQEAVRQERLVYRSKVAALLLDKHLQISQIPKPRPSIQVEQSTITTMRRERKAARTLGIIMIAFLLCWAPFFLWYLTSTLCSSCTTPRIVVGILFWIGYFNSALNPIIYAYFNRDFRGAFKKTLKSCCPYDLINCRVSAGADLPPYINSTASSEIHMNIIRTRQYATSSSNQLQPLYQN

EC50 [1]: 0.911 nM
SMILES: NCC(O)c1ccc(O)cc1 (racemic) [octopamine, (±)-octopamine hydrochloride]
effect on cAMP luminescence / cAMP production in empty-vector cells [2]: not | EC50 [3]: 5.56 nM | EC50 [4]: 43.9 nM

antagonistic activity (in words) [5]: weak antagonistic activity | IC50 [7]: 2660 nM
SMILES: CN(C)CCCN1c2ccccc2Sc2ccc(Cl)cc21 [chlorpromazine, chlorpromazine hydrochloride]
antagonistic activity (in words) [6]: ineffective

EC50 [1]: 3320 nM
SMILES: NCCc1ccc(O)c(O)c1 [dopamine, dopamine hydrochloride]

SMILES: CN1CCN2c3ccccc3Cc3ccccc3C2C1 (centres unmarked) [mianserin, mianserin hydrochloride]
antagonistic activity (in words) [6]: blocked

EC50 [1]: 0.635 nM
SMILES: c1ccc2c(CC3=NCCN3)cccc2c1 [naphazoline, naphazoline hydrochloride]

Emax at 10 µM ([1]; HEK293, at 1.00 × 10^−5 M, normalized to octopamine at 1 × 10^−5 M (=100%), read-out: agonistic effect (relative cAMP luminescence)): ~20% | IC50 [7]: 3800 nM
SMILES: Cc1ccc(N(CC2=NCCN2)c2cccc(O)c2)cc1 [phentolamine, phentolamine hydrochloride]

EC50 [1]: 19.7 nM
SMILES: NCCc1ccc(O)cc1 [tyramine, Tyramine hydrochloride]
effect on cAMP luminescence / cAMP production in empty-vector cells [2]: not
